Patent US20250257041A1, “INDUCERS OF INTEGRATED STRESS RESPONSE TO TREAT CANCER” (The Board of Regents of The University of Texas System, priority 2022, published 2025)
Like-named read-outs stand apart in the source and are kept apart here.

Assays:
[1] = test system: HCT116 WT; experiment: Proliferation of HCT116 colorectal cell line, Cell TiterGlo; format: cell-based, human
Outline: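 Cell viability by CellTiter-Glo in parental HCT116, in a GCN2-knockout line, and in parental cells co-treated with ISRIB. IC50 from triplicate 10-point titrations; repeated values come from separate runs.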

[2] = test system: HCT116 GCN2KO; experiment: Proliferation of HCT116 cells with GCN2 knocked out (CRISPR), Cell TiterGlo; format: cell-based, human; details: Homo sapiens
Method: Briefly, compounds were tested for their effect on proliferation of HCT116 colorectal cell lines using Cell TiterGlo (Promega). Each compound was tested in a 10-point dose response experiment in triplicate. Multiple values in the column titled HCT116 WT reflect separate independent experiments. The three columns titled “HCT116 WT (repeat)”, “HCT116-CGN2KO” and “HCT116 WT+ISRIB” provide data for selected compounds that were tested simultaneously under three conditions. The HCT116 WT column lists IC50 against the wild type HCT116 colorectal cancer cell line. The HCT116-CGN2KO lists IC50 data for cells in which one component of the integrated stress response, GCN2, has been knocked out using CRISPR technology.

[3] = Homo sapiens, HCT-116, wild type HCT116, 10-point dose response in triplicate, multiple values = separate independent experiments, read-out: HCT116 IC50 (uM) HCT116 WT
[4] = Homo sapiens, HCT-116, wild type HCT116, tested simultaneously with GCN2KO and +ISRIB, read-out: HCT116 IC50 (uM) HCT116 WT (repeat)
[5] = HCT-116, HCT116 cells with GCN2 knocked out using CRISPR, read-out: HCT116 IC50 (uM) HCT116 − GCN2KO
[6] = wild type HCT116, compound plus 10 nM of ISRIB, read-out: HCT116 IC50 (uM) HCT116 WT + ISRIB

SMILES | IC50 [1, 3] [µM] | IC50 [1, 4] [µM] | IC50 [2, 5] [µM] | IC50 [1, 6] [µM] | IC50 ([1]; Homo sapiens, HCT-116, read-out: HCT116 IC50 (uM) HCT116 WT) [µM] | IC50 ([1]; Homo sapiens, HCT-116, read-out: HCT116 IC50 (uM) HCT116 WT (repeat)) [µM] | IC50 ([1]; read-out: HCT116 IC50 (uM) HCT116 WT + ISRIB, wild type HCT116, compound plus 10 nM of ISRIB) [µM] | IC50 ([2]; HCT-116, read-out: HCT116 IC50 (uM) HCT116 − GCN2KO) [µM]
C#CCOc1ccc(C(=O)c2ccc(C(=O)Nc3cc(-c4ccc(NC(=O)c5ccccc5)cc4)nn3C)cc2)cc1 [SW389012, N-(3-(4-Benzamidophenyl)-1-methyl-1H-pyrazol-5-yl)-4-(4-(prop-2-yn-1-yloxy)benzoyl)benzamide] | > 50 | 7.01 | 19.2 |  |  |  |  | 
Cn1nc(-c2ccc(NC(=O)c3ccccc3)cc2)cc1NC(=O)c1cccc(C(F)(F)F)c1 [SW389155, N-(3-(4-Benzamidophenyl)-1-methyl-1H-pyrazol-5-yl)-3-(trifluoromethyl)benzamide] | 0.416 | 0.46 | 2.2 | 2.97 |  |  |  | 
Cn1nc(-c2ccc(NC(=O)c3ccc(Cl)cc3)cc2)cc1NC(=O)c1ccccc1 [SW393072, N-(4-(5-benzamido-1-methyl-1H-pyrazol-3-yl)phenyl)-4-chlorobenzamide] | 3.3 | 2.83 | 11.1 | 13.8 |  |  |  | 
C#CCOc1ccc(C(=O)c2cccc(C(=O)Nc3cc(-c4ccc(NC(=O)c5ccccc5)cc4)nn3C)c2)cc1 [SW389152, N-(3-(4-Benzamidophenyl)-1-methyl-1H-pyrazol-5-yl)-3-(4-(prop-2-yn-1-yloxy)benzoyl)benzamide] | 0.305 | 0.31 | 0.65 | 0.71 |  |  |  | 
Cn1nc(-c2ccc(NC(=O)c3ccccc3Br)cc2)cc1NC(=O)c1ccccc1 [SW393133, N-(4-(5-benzamido-1-methyl-1H-pyrazol-3-yl)phenyl)-2-bromobenzamide] | 0.01 | 0.03 | 0.21 | 0.3 |  |  |  | 
C#Cc1cccc(C(=O)Nc2cc(-c3ccc(NC(=O)c4ccccc4)cc3)nn2C)c1 [SW389005, N-(3-(4-Benzamidophenyl)-1-methyl-1H-pyrazol-5-yl)-3-ethynylbenzamide] | 0.313 | 0.33 | 2.97 | 2.96 |  |  |  | 
COc1ccccc1C(=O)Nc1cc(-c2ccc(NC(=O)c3ccccc3)cc2)nn1C [SW389006, N-(3-(4-Benzamidophenyl)-1-methyl-1H-pyrazol-5-yl)-2-methoxybenzamide] | 1.23 | 0.82 | 2.34 | 2.4 |  |  |  | 
Cn1nc(-c2ccc(NC(=O)c3ccccc3C(F)(F)F)cc2)cc1NC(=O)c1ccccc1 [SW393124, N-(4-(5-benzamido-1-methyl-1H-pyrazol-3-yl)phenyl)-2-(trifluoromethyl)benzamide] | 0.008 | 0.02 | 0.08 | 0.09 |  |  |  | 
COC(=O)c1cccc(C(=O)Nc2cc(-c3ccc(NC(=O)c4ccccc4)cc3)nn2C)c1 [SW389153, Methyl 3-((3-(4-benzamidophenyl)-1-methyl-1H-pyrazol-5-yl)carbamoyl)benzoate] | 0.208 | 0.2 | 1.31 | 1.73 |  |  |  | 
C#CCOc1ccccc1C(=O)Nc1ccc(-c2cc(NC(=O)c3ccccc3)n(C)n2)cc1 [SW393168, N-(4-(5-benzamido-1-methyl-1H-pyrazol-3-yl)phenyl)-2-(prop-2-yn-1-yloxy)benzamide] | 0.34 | 1.02 | 2.95 | 3.23 |  |  |  | 
Cn1nc(-c2ccc(NC(=O)c3ccncc3)cc2)cc1NC(=O)c1ccccc1 [SW393063, N-(4-(5-benzamido-1-methyl-1H-pyrazol-3-yl)phenyl)isonicotinamide] | 3.2 | 2.04 | 3.69 | 3.1 |  |  |  | 
Cn1nc(-c2ccc(NC(=O)c3cccc(Cl)c3)cc2)cc1NC(=O)c1ccccc1 [SW393062, N-(4-(5-benzamido-1-methyl-1H-pyrazol-3-yl)phenyl)-3-chlorobenzamide] | 2.1 | 2.37 | 10.5 | 8.72 |  |  |  | 
C#CCOc1cccc(C(=O)Nc2cc(-c3ccc(NC(=O)c4ccccc4Cl)cc3)nn2C)c1 [SW393125, 2-Chloro-N-(4-(1-methyl-5-(3-(prop-2-yn-1-yloxy)benzamido)-1H-pyrazol-3-yl)phenyl)benz-amide] | 0.012 | 0.03 | 0.07 | 0.07 |  |  |  | 
Cn1nc(-c2ccc(NC(=O)c3cccc(C(=O)c4ccccc4)c3)cc2)cc1NC(=O)c1ccccc1 [SW389004, N-(4-(5-Benzamido-1-methyl-1H-pyrazol-3-yl)phenyl)-3-benzoylbenzamide] | 5.7 | 7.47 | 7.75 | 7.22 |  |  |  | 
Cn1nc(-c2ccc(NC(=O)c3ccccc3Cl)cc2)cc1NC(=O)c1ccc(C2(C(F)(F)F)N=N2)cc1 [SW393142, 2-Chloro-N-(4-(1-methyl-5-(4-(3-(trifluoromethyl)-3H-diazirin-3-yl)benzamido)-1H-pyrazol-3-yl)phenyl)benzamide] |  |  |  |  | 3.6 | 1.59 | 3.41 | 3.22
Cn1nc(-c2ccc(NC(=O)c3ccccc3)cc2)cc1NC(=O)c1cccc(C(=O)c2ccccc2)c1 [SW389154, N-(3-(4-Benzamidophenyl)-1-methyl-1H-pyrazol-5-yl)-3-benzoylbenzamide] | 0.195 | 0.18 | 0.53 | 0.77 |  |  |  | 
Cn1nc(-c2ccc(NC(=O)c3ccccc3N=[N+]=[N-])cc2)cc1NC(=O)c1ccccc1 [SW393170, N-(4-(5-benzamido-1-methyl-1H-pyrazol-3-yl)phenyl)-2-azidobenzamide] | 0.03 | 0.12 | 0.93 | 0.84 |  |  |  | 
C#CCN(C(=O)c1ccccc1Cl)c1ccc(-c2cc(NC(=O)c3ccccc3)n(C)n2)cc1 [SW393174, N-(4-(5-Benzamido-1-methyl-1H-pyrazol-3-yl)phenyl)-2-chloro-N-(prop-2-yn-1-yl)benzamil-de] | 6.1 | 7.18 | 6.37 | 6.52 |  |  |  | 
C#CCOc1ccc(C(=O)c2ccc(C(=O)Nc3ccc(-c4cc(NC(=O)c5ccccc5)n(C)n4)cc3)cc2)cc1 [SW389010, N-(4-(5-Benzamido-1-methyl-1H-pyrazol-3-yl)phenyl)-4-(4-(prop-2-yn-1-yloxy)benzoyl)benzamide] | 20 | 43.1 | 41.1 |  |  |  |  | 
Cn1nc(-c2ccc(NC(=O)c3ccc(C(=O)c4ccccc4)cc3)cc2)cc1NC(=O)c1ccccc1 [SW389002, N-(4-(5-Benzamido-1-methyl-1H-pyrazol-3-yl)phenyl)-4-benzoylbenzamide] | 7.1 | 26.4 | 31.9 | 46.3 |  |  |  | 
COC(=O)c1ccc(C(=O)Nc2ccc(-c3cc(NC(=O)c4ccccc4)n(C)n3)cc2)cc1 [SW393073, methyl 4-((4-(5-benzamido-1-methyl-1H-pyrazol-3-yl)phenyl)carbamoyl)benzoate] | 14 | 8 | ≥ 50 |  |  |  |  | 
Cn1nc(-c2ccc(NC(=O)c3ccccc3)cc2)cc1NC(=O)c1cccc(N=[N+]=[N-])c1 [SW389157, 3-Azido-N-(3-(4-benzamidophenyl)-1-methyl-1H-pyrazol-5-yl)benzamide] | 0.405 | 0.21 | 2.77 | 2.5 |  |  |  | 
Cn1nc(-c2ccc(NC(=O)c3ccccc3)cc2)cc1NC(=O)c1cccnc1 [SW393128, N-(3-(4-benzamidophenyl)-1-methyl-1H-pyrazol-5-yl)nicotinamide] | 0.2 | 0.48 | 4.05 | 3.73 |  |  |  | 
